Literature values as cited in PMC3259182 (European Journal of Medicinal Chemistry, 2011).

Legend:
[1] = test system: NV replicon-harboring cells (HG23 cells); details: NV genome levels, 24 hr post-treatment, ref [4]
HG23 cells = details: median toxic dose at 48 hr of treatment, ref [4]

In the case of `O=S1(=O)N(CCN2CCCCC2)CCN1Cc1cccc(Oc2ccccc2)c1` [Compound 7d, 2-(3-Phenoxybenzyl)-5-(2-(piperidin-1-yl)ethyl)-1,2,5-thiadiazolidine1,1-dioxide], the ED50 [1] is listed as 4.7 µM and the TD50 (HG23 cells) is listed as 12.3 µM.

For `Cl.O=S1(=O)N(CCN2CCOCC2)CCN1Cc1cccc(Oc2ccccc2)c1` [Compound 7c, 2-(2-Morpholinoethyl)-5-(3-phenoxybenzyl)-1,2,5-thiadiazolidine 1,1-dioxide], the ED50 [1] is listed as 5.2 µM and the TD50 (HG23 cells) is listed as 95.4 µM.
